What was measured:
CHO-K1 cells = assay: Micronucleus assay (MNT) in vitro; type: cell-based; parameters: key: A: negative, putative negative (micronuclei detected beyond threshold of 60% cyctotoxicity); B: positive; conditions: 24 hrs treatment, 0.2 µM to 100 µM
Procedure: The in vitro MNT assay is performed in CHO-K1 cells due to their stable and welI-characterized karyotype, high sensitivity and suitability for a high content imaging approach. They have a basal spontaneous micronucleus frequency of 3-4%.
24 hrs after plating CHO-K1 cells are treated with test compounds for 24 hrs (in duplicates; fixed concentration ranges from 0.2 µM to 100 µM in 2-fold dilution steps). After a medium change cells are incubated for 24 hrs with Cytochalasin B to block cytokinesis and are then fixed and nuclei / micronuclei visualized with a DNA stain. Images are acquired with the Molecular Devices high content imagers IXU or IXM and are analyzed with the dedicated MetaXpress software micronucleus module. Criteria for scoring of micronuclei (MN) are the following: • diameter of the MN should be less than ⅓ of the main nucleus • MN should be separated from or marginally overlap with main nucleus (= no blebs) • MN should have similar staining as the main nucleus At least 1000 binucleated cells are evaluated per treatment replicate. Mitomycin C is used as reference stimulator of micronucleus formation. Cytotoxicity is evaluated in parallel and defined by comparing total nuclei count in compound-treated samples to neutral control samples treated with vehicle only (1% DMSO) (100% cytotoxicity means all cells are dead or lost).
A test compound is regarded as POSITIVE if generation of micronuclei and exhibition of less than 60% cytotoxicity at the same concentration can be observed.
Compounds are scored only in the soluble concentration range. Experimental data of the compounds shown in Table 1 in the MNT assay are shown in Table 2 below and classified in the following groups: […]

human rec ACSS2 = target: T1, human rec ACSS2 (Homo sapiens, UniProt Q9NR19); assay: Biochemical activity ACSS2 assay (AMP-Glo); conditions: human recombinant ACSS2, AMP-Glo, 180 min at 37° C.
T1 construct: myc (C); purchased Origene
T1 sequence (Q9NR19 whole entry): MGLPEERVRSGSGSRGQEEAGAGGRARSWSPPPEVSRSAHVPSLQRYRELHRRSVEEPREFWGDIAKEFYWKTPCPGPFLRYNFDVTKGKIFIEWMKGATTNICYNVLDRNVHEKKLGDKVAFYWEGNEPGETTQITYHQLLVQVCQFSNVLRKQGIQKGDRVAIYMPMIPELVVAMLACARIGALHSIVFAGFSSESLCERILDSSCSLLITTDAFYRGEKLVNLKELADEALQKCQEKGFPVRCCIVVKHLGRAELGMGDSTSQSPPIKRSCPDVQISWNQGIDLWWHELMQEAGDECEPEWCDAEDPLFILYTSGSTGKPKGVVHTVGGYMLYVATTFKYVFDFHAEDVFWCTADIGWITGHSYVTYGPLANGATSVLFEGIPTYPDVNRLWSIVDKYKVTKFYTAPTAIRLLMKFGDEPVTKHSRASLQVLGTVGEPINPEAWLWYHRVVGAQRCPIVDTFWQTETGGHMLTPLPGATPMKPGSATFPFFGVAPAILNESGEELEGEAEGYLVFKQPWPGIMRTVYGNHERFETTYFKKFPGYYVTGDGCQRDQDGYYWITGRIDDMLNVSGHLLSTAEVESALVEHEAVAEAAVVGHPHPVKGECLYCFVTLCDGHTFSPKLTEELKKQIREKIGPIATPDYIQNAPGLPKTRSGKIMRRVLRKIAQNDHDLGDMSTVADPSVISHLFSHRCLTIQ
How it was run: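 C-terminal myc-tagged human recombinant ACSS2 (1 nM) reacted with 100 µM ATP, 100 µM CoA and 500 µM acetate (final) in pH 7.5 Hepes buffer for 180 min at 37° C, compound in 10 concentrations from 30 µM. Released AMP detected by AMP-Glo luminescence. IC50 normalised to inhibitor-free reaction and 5 µM reference inhibitor.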

ACSS2 = target: T2, ACSS2 (Homo sapiens, UniProt Q9NR19); assay: Cellular assay of 14C acetate incorporation into fatty acids (IC50 ACSS2 cellular lipids); type: cell-based; conditions: HCT-15 cells
T2 construct: endogenous fatty acid synthesis activity in the human HCT-15 cancer cell line; endogenous in cells; host or cells: HCT-15
T2 sequence (Q9NR19 whole entry): as above
Procedure: This protocol describes a cellular assay capable to quantify endogenous fatty acid synthesis activity in the human HCT-15 cancer cell line following the incorporation of extracellularly administered radiolabeled ^14C acetate with a scintillation proximity based read out on extracted fatty acids.
HCT-15 cells were grown in RPMI 1640 (Gibco) supplemented with 2 mM glutamine, 1 mM sodium pyruvate 10 mM HEPES and 10 % FCS (heat-inactivated) passaged every 2-3 days to remain a subconfluent, vital culture. A working cell bank was prepared with each aliquot containing 1x10^7 viable cells. After thawing, these cells are dilute immediately 1:20 in pre-warmed (37° C.) culture medium. Cells are collected by centrifugation at 200 x g for 5 min, and the supernatant is replaced by 30 mL of fresh culture medium per aliquot to obtain a cell suspension containing 350000 cells/ml. From this cell suspension 100 µL are dispersed into each well of a collagen coated 96 well plate, (black, clear bottom, PS, F-bottom, Greiner) and culture for 24 h (37° C., 5% CO2). After incubation the culture medium is removed and the wells are washed once with 100 µL PBS++ (supplemented with Mg^2+/ Ca^2+, Gibco) and 50 µL assay medium (RPMI 1640 + 10 mM HEPES) are added to each well. Compounds serial dilutions are prepared from 10 mM stock solutions in DMSO using a fixed dilution factor (usually 1:3). After preparation of the dilution series in DMSO, the individual dilutions are further diluted in the assay medium. This working dilution is prepared such, that the concentration is 7x of the final concentration in the assay. The maximal DMSO concentration in the final assay is 0.1%.
To each well 10 µL compound working dilution or DMSO blank are added and the cells are cultured for 2 h (37° C., 5% CO2). Then 10 µL AlamarBlue reagent (Invitrogen) containing 14 µCi/mL ^14C-acetate (Perkin Elmer) are added to each well (70 µl total volume) and cells are again cultured for 2 h. Cell viability is verified by measuring the AlamarBlue fluorescence (Tecan Safire, ex: 544 nm / em: 590 nm). After incubation the culture medium is removed and the wells are carefully washed once with cold 100 µL PBS++. For cell lysis and fatty acid recovery 50 µl 0.1 M NaOH and 0.1 % Triton-X100 are added per well. The plate is sealed with PlateLoc (clear peelable heat seal, Agilent) and incubate at 70° C. for 16-24 h. After cooling to room temperature, the plates are centrifuged for 1 min at 1000 rpm and the plate seals are removed. For acidification 150 µL 0.1 M HCl are added to each well, mixed and 150 µL of the mixture are transferred into a 96 well FlashPlate (Perkin Elmer). The plates are sealed with TopSeaI-a (Perkin Elmer). To allow for the fatty acid binding to the well surfaces the plates are incubate for 4 h at 70° C. After cooling to room temperature, the plates are centrifuged for 1 min at 1000 rpm and stored for 0.5-2 h at room temperature in the dark. Radioactivity from ^14C incorporation into fatty acids in the wells is measured as CPM count in a MicroBeta scintillation counter (Perkin Elmer).

Row | Structure (SMILES) | MNT (CHO-K1 cells) | IC50 (human rec ACSS2) [nM] | IC50 (ACSS2) [nM]
1 | CCc1c(C(O)(c2ccccc2)c2ccccn2)nc2cc(OC)c(C(=O)Nc3ncn(CC)n3)cn12 (racemic) [Compound 16, 3-Ethyl-2-(hydroxy-phenyl-pyridin-2-yl-methyl)-7-methoxy-imidazo[1,2-a]pyridine-6-carboxylic acid (1-ethyl-1H-[1,2,4]triazol-3-yl)-amide] | A | 10 to 100 | 10 to 100
2 | CCn1cnc(NC(=O)c2cc3c(nc2OC)nc(C(O)(c2ccccc2F)c2ccc(OC(F)F)cc2F)n3CC)n1 (racemic) [Compound 94, 2-{[4-(difluoromethoxy)-2-fluorophenyl](2-fluorophenyl)hydroxymethyl}-1-ethyl-N-(1-ethyl-1H-1,2,4-triazol-3-yl)-5-methoxy-1H-imidazo[4,5-b]pyridine-6-carboxamide] | A | 1 to 10 | 1 to 10
3 | CCn1cnc(NC(=O)c2cc3c(nc2OC)nc(C(O)(c2ccccc2)c2ccccn2)n3CC)n1 (single isomer, unassigned) [Compound 53, 1-ethyl-N-(1-ethyl-1H-1,2,4-triazol-3-yl)-2-[hydroxy(phenyl)(pyridin-2-yl)methyl]-5-methoxy-1H-imidazo[4,5-b]pyridine-6-carboxamide] | in-conclusive | 1 to 10 | 0.01 to 1
4 | CCc1c(C(O)(c2ccccc2)c2ccccc2)nn2cc(Cl)c(C(=O)Nc3ncn(CC)n3)cc12 [Compound 1, 6-Chloro-3-ethyl-2-(hydroxy-diphenylmethyl)-pyrazolo[1,5-a]pyridine-5-carboxylic acid (1-ethyl-1H-[1,2,4]triazol-3-yl)-amide] | A | 0.01 to 1 | 0.01 to 1
5 | CCc1c(C(O)(c2ccccc2F)c2ccccc2F)nn2cc(Cl)c(C(=O)Nc3ncn(CC)n3)cc12 [Compound 2, 2-[Bis-(2-fluoro-phenyl)-hydroxy-methyl]-6-chloro-3-ethyl-pyrazolo[1,5-a]pyridine-5-carboxylic acid (1-ethyl-1H-[1,2,4]triazol-3-yl)-amide] | A | 1 to 10 | 0.01 to 1
6 | CCc1c(C(O)(c2ccccc2F)c2ccccc2F)nn2cc(C)c(C(=O)Nc3ncn(CC)n3)cc12 [Compound 3, 2-[Bis-(2-fluoro-phenyl)-hydroxy-methyl]-3-ethyl-6-methyl-pyrazolo[1,5-a]pyridine-5-carboxylic acid (1-ethyl-1H-[1,2,4]triazol-3-yl)-amide] | A | 1 to 10 | 10 to 100
7 | CCc1c(C(O)(c2ccccc2F)c2ccccc2F)nn2cc(OC)c(C(=O)Nc3cnn(CC)c3)cc12 [Compound 4, 2-[Bis-(2-fluoro-phenyl)-hydroxy-methyl]-3-ethyl-6-methoxy-pyrazolo[1,5-a]pyridine-5-carboxylic acid (1-ethyl-1H-pyrazol-4-yl)-amide] | A | 10 to 100 | 10 to 100
8 | CCc1c(C(O)(c2ccccc2F)c2ccccc2F)nn2ccc(C(=O)Nc3ncn(CC)n3)cc12 [Compound 5, 2-[Bis-(2-fluoro-phenyl)-hydroxy-methyl]-3-ethyl-pyrazolo[1,5-a]pyridine-5-carboxylic acid (1-ethyl-1H-[1,2,4]triazol-3-yl)-amide] | A | 1 to 10 | 0.01 to 1
9 | CCc1c(C(O)(c2ccccc2)c2ccccc2)nn2cc(Cl)c(C(=O)Nc3cnn(CC)c3)cc12 [Compound 6, 6-Chloro-3-ethyl-2-(hydroxy-diphenylmethyl)-pyrazolo[1,5-a]pyridine-5-carboxylic acid (1-ethyl-1H-pyrazol-4-yl)-amide] | A | 10 to 100 | 1 to 10
10 | CCc1c(C(O)(c2ccccc2)c2ccccc2)nn2cc(OC)c(C(=O)Nc3cnn(CC)c3)cc12 [Compound 8, 3-Ethyl-2-(hydroxy-diphenyl-methyl)-6-methoxy-pyrazolo[1,5-a]pyridine-5-carboxylic acid (1-ethyl-1H-pyrazol-4-yl)-amide] | A | 10 to 100 | 10 to 100
11 | CCc1c(C(O)(c2ccccc2)c2ccccc2)nn2ccc(C(=O)Nc3ncn(CC)n3)cc12 [Compound 9, 3-Ethyl-2-(hydroxy-diphenyl-methyl)-pyrazolo[1,5-a]pyridine-5-carboxylic acid (1-ethyl-1H-[1,2,4]triazol-3-yl)-amide] | B | 1 to 10 | 0.01 to 1
12 | CCc1c(C(O)(c2ccccc2)c2ccccc2)nn2ccc(C(=O)Nc3cnn(CC)c3)cc12 [Compound 10, 3-Ethyl-2-(hydroxy-diphenyl-methyl)-pyrazolo[1,5-a]pyridine-5-carboxylic acid (1-ethyl-1H-pyrazol-4-yl)-amide] | A | 10 to 100 | 10 to 100
13 | CCc1c(C(O)(c2ccccc2)c2ccccc2)nn2cc(OC)c(C(=O)Nc3ncn(CC)n3)cc12 [Compound 11, 3-Ethyl-2-(hydroxy-diphenyl-methyl)-6-methoxy-pyrazolo[1,5-a]pyridine-5-carboxylic acid (1-ethyl-1H-[1,2,4]triazol-3-yl)-amide] | A | 1 to 10 | 1 to 10
14 | CCc1c(C(O)(c2ccccc2)c2ccccc2)nc2ccc(C(=O)Nc3cnn(CC)c3)cn12 [Compound 13, 3-Ethyl-2-(hydroxy-diphenyl-methyl)-imidazo[1,2-a]pyridine-6-carboxylic acid (1-ethyl-1H-pyrazol-4-yl)-amide] | A | 10 to 100 | 100 to 10000
15 | CCc1c(C(O)(c2ccccc2)c2ccccc2)nc2cc(Cl)c(C(=O)Nc3ncn(CC)n3)cn12 [Compound 14, 7-Chloro-3-ethyl-2-(hydroxy-diphenylmethyl)-imidazo[1,2-a]pyridine-6-carboxylic acid (1-ethyl-1H-[1,2,4]triazol-3-yl)-amide] | A | 1 to 10 | 1 to 10
16 | CCc1c(C(O)(c2ccccc2)c2ccccc2)nc2cc(Cl)c(C(=O)Nc3cnn(CC)c3)cn12 [Compound 19, 7-Chloro-3-ethyl-2-(hydroxy-diphenylmethyl)-imidazo[1,2-a]pyridine-6-carboxylic acid (1-ethyl-1H-pyrazol-4-yl)-amide] | A | 10 to 100 | 10 to 100
17 | CCc1c(C(O)(c2ccccc2)c2ccccc2)nc2cc(F)c(C(=O)Nc3ncn(CC)n3)cn12 [Compound 20, 3-Ethyl-7-fluoro-2-(hydroxy-diphenylmethyl)-imidazo[1,2-a]pyridine-6-carboxylic acid (1-ethyl-1H-[1,2,4]triazol-3-yl)-amide] | A | 1 to 10 | 1 to 10
